{"source": "paper PMC7391726", "about": "“Fatty acid mimetic PBI-4547 restores metabolic homeostasis via GPR84 in mice with non-alcoholic fatty liver disease” (Scientific Reports, 2020)", "key": {"standard diet-fed mice": {"tested_on": "standard diet-fed mice", "experiment": "Standard diet-fed mice", "assay_type": "in vivo, mouse", "from_the_text": "The well-established high-fat diet (HFD) mouse model of obesity was used to study the impact of PBI-4547 on the onset and progression of NAFLD. A 14-week HFD regimen led to significant weight gain in both male and female mice. […] Moreover, PBI-4547 decreased serum triglycerides while enhancing adiponectin levels. […] Of note, the effects of PBI-4547 on bodyweight, food consumption, glucose tolerance, fasting blood glucose, insulin resistance and HOMA-β indices were absent in standard diet-fed mice (Table S1).\nWT or Gpr84^−/− mice, as previously described, (aged 10–14 weeks at the beginning of the experiment) were either fed a standard diet (STD) or a high-fat diet (HFD) (Envigo #TD.06414) for 14 weeks. At this point, mice were administered either vehicle (water) or PBI-4547 (10 mg/kg) on a daily basis for 6 (WT study) or 8 (WT vs KO study) weeks by gastric gavage, and were sacrificed thereafter. Liver and WAT tissues were fixed in 10% formalin for histological analyses or flash frozen in liquid nitrogen for RT-PCR analyses. All animal studies were reviewed and approved by the animal care and use committee of the Institut National de la Recherche Scientifique – Armand-Frappier (Laval, QC, Canada) and the University of Ottawa’s Animal Care and Veterinary Services (Ottawa, ON, Canada). Protocols were approved and undertaken according to the Canadian Council on Animal Care guidelines."}, "HepG2 hepatocytes": {"tested_on": "HepG2 hepatocytes", "experiment": "Mitochondrial respiration (Seahorse OCR) in HepG2 hepatocytes", "assay_type": "cell-based", "details": "HepG2, 24 h treatment", "experimental": "Moreover, hepatic expression of several genes involved in glucose metabolism including Pklr (pyruvate kinase L/R), G6pc (glucose-6-phosphatase, catalytic) and Slc2a2 (Glut2) was normalized by PBI-4547 (Fig. 4B). […] To test this hypothesis, mitochondrial respiration in HepG2 hepatocytes was measured (Fig. 4C). […] However, it did decrease maximal respiration and ATP production, in agreement with the metabolomics results.\nFigure 4 Effects of PBI-4547 on glucose and FA metabolism in liver. (A) Relative gene expression levels of glucose and FA-related metabolism in liver from STD, HFD and HFD + PBI-4547 mice. Data are presented as geometric mean ± SEM (n ≥ 6 per group, one-way ANOVA with Dunnett’s multicomparison test vs HFD group). (B) 1H-NMR metabolic profiling in liver tissues. (C) Oxygen Consumption Rate (OCR) and Extracellular Acidifcation Rate (ECAR) in HepG2 hepatocytes. Measurements of basal respiration, maximal respiration, ATP production and proton leak in HepG2 hepatocytes treated or not with PBI-4547. (D) Oxidation rate of ^14C-palmitate in HepG2 hepatocytes treated or not with PBI-4547. Data are presented as mean ± SEM (n = 3, Student t test Ctrl vs PBI-4547). See also Fig. S2.\nOxygen consumption rate (OCR) and extracellular acidification rate (ECAR) were measured with a Seahorse XF96 as per manufacturer’s protocol (Agilent). Briefly, 8 × 10^4 HepG2 cells were plated onto Seahorse XF96 96-well plates for 24 h prior to stimulation. The next day, cells were treated with PBI-4547 or with vehicle control for 24 h. Cells were subjected to a mitochondrial stress test with serial injections of Oligomycin (1 μM; ATPase inhibitor), FCCP (1 μM; mitochondrial uncoupler) and Rotenenone/Antimycin A (1 μM; complex I/III inhibitor)."}, "PPARδ": {"target": "T1, PPARδ (Homo sapiens, UniProt Q03181)", "T1 construct": "glutathione S-transferase (GST)-tagged human PPAR-LBD; purchased Fisher Scientific", "T1 sequence (Q03181 211-439 limits assumed)": "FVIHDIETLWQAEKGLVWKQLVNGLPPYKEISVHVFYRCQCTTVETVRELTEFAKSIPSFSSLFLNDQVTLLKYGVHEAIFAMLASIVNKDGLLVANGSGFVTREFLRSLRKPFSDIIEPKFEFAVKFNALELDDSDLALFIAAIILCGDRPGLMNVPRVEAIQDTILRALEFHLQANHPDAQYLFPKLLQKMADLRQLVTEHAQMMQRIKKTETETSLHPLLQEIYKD", "experiment": "LanthaScreen TR-FRET competitive binding assay, PPARδ LBD", "details": "Cheng-Prusoff; read-out: Ki inhibition constant, PPARδ LBD", "from_the_text": "The peroxisome proliferator-activated receptors (PPARs), PPARα, PPARδ, and PPARγ are ligand-dependent transcription factors regulated by FAs, including MCFAs, which control expression of several key metabolism-associated genes. We thus characterized the binding and transcriptional activity of PBI-4547 to these receptors. A LanthaScreen TR-FRET competitive binding assay was used to determine the binding affinity of PBI-4547 in comparison to the full control agonists GW7647 (PPARα), GW0742 (PPARδ), and rosiglitazone (PPARγ).\nThe LanthaScreen time-resolved fluorescence resonance energy transfer (TR-FRET) PPARα, PPARδ and PPARγ competitive binding assay (Fisher Scientific) was performed according to the manufacturer’s protocol. […] The FRET signal was measured using an Infinite M1000 microplate reader by excitation at 332 nm and emission at 520 nm for fluorescein and 490 nm for terbium. Competitive ligand binding to PPAR is detected by a test compound’s ability to displace the Fluormone pan-PPAR Green from the LBD, which results in a decrease of the 520 nm/490 nm TR-FRET ratio. The inhibition constant (Ki) of the competitor ligand was calculated by applying the Cheng-Prusoff equation."}}, "data": [{"compound": "CCCCCc1cc(CCCCC)cc(CC(=O)[O-])c1.[Na+]", "note": "[PBI-4547, 2-[3,5-dipentylphenyl]acetate sodium salt]", "values": [{"measurement": "effects on bodyweight, food consumption, glucose tolerance, fasting blood glucose, insulin resistance and HOMA-β indices", "setting": "standard diet-fed mice", "value": "absent"}, {"measurement": "ATP production", "setting": "HepG2 hepatocytes", "value": "decrease"}, {"measurement": "basal oxygen consumption rate (OCR)", "setting": "HepG2 hepatocytes", "value": "did not affect"}, {"measurement": "maximal respiration", "setting": "HepG2 hepatocytes", "value": "decrease"}, {"measurement": "mitochondrial proton leak", "setting": "HepG2 hepatocytes", "value": "significantly increased"}, {"measurement": "Ki", "setting": "PPARδ", "value": 3.16, "unit": "µM"}]}]}
